Earlier results on one molecule are cited in US12692503B2, “Generation of acyl amino acids” (Modular Genetics, Inc., priority 2007, dated 2026).

*1 amine or outer side, *2 acyl side, *3 side chain or, on linkers, in order; H or OH if unused. Where a SMILES comes first, the peptide text is derived from it. Bridges are numbered along the chain shown (N, C = ends). [ ]: non-standard residue; d: D form. X1 = CC(C)CCCCCCCCC[C@H](CC(=O)[*:1])O[*:2]

For the data set the following is noted: organic solvents and water.

Take `CC(C)CCCCCCCCC[C@@H]1CC(=O)N[C@@H](CCC(=O)O)C(=O)N[C@@H](CC(C)C)C(=O)N[C@H](CC(C)C)C(=O)N[C@@H](C(C)C)C(=O)N[C@@H](CC(=O)O)C(=O)N[C@H](CC(C)C)C(=O)N[C@@H](CC(C)C)C(=O)O1` [surfactin] (EL[dL]VD[dL]L; linker N-C via X1): the solubility entry was “soluble in both organic solvents and water”.
